# Reference: EPA's ToxRefDB 2
# Experiments:
# [1] = tested on: rat; settings: Combined chronic toxicity/carcinogenicity; fischer; Oral; Feed; dose end: 2 year; group: systemic; systemic / in life observation / body weight / body weight + systemic / in life observation / body weight / body weight gain
# [2] = tested on: rat; settings: Prenatal developmental toxicity study, fischer, Oral, Gavage/Intubation, dose end: 15 GD
# [3] = tested on: rabbit; settings: Prenatal developmental toxicity study, new zealand white, Oral, Gavage/Intubation, dose end: 28 GD
# [4] = tested on: mouse; settings: Carcinogenicity; b6c3f1; Oral; Feed; dose end: 2 year; group: systemic; systemic / in life observation / body weight / body weight
# [5] = tested on: rat; settings: Subchronic oral toxicity in rodents, fischer, Feed, dose end: 13 week, group: systemic
# [6] = tested on: rat; settings: Multigenerational reproductive toxicity study, fischer, Oral, Feed, dose end: 3 generation
# [7] = tested on: mouse; settings: Subchronic oral toxicity in rodents, b6c3f1, Feed, dose end: 13 week, group: systemic, systemic / in life observation / body weight / body weight gain
# [8] = tested on: rat; settings: Subchronic oral toxicity in rodents, fischer, Gavage/Intubation, dose end: 13 week, group: systemic
# [9] = tested on: mouse; settings: Subchronic oral toxicity in rodents, b6c3f1, Gavage/Intubation, dose end: 13 week, group: systemic
# [10] = tested on: rat; settings: Carcinogenicity, fischer, Oral, Gavage/Intubation, dose end: 103 week, group: systemic
# [11] = tested on: dog; settings: Multigenerational reproductive toxicity study; beagle; Oral; Feed; dose end: 3 generation; group: reproductive; reproductive / reproductive performance / estrous cycle / abnormal
# [12] = tested on: rat; settings: Carcinogenicity, other, Oral, Feed, dose end: 78 week, group: systemic
# [13] = tested on: mouse; settings: Multigenerational reproductive toxicity study, other, Oral, Feed, dose end: 5 generation
# [14] = tested on: rat; settings: Multigenerational reproductive toxicity study, sprague dawley, Oral, Feed, dose end: 2 generation
# [15] = tested on: rat; settings: Multigenerational reproductive toxicity study, sprague dawley, Oral, Feed, dose end: 2 generation; remark: listed apart in the source
# [16] = tested on: mouse; settings: Subchronic oral toxicity in rodents, b6c3f1, Feed, dose end: 6 week, group: systemic
# [17] = tested on: mouse; settings: Carcinogenicity; b6c3f1; Oral; Feed; dose end: 78 week; group: systemic; systemic / in life observation / mortality / mortality
# [18] = tested on: rat; settings: Subchronic oral toxicity in rodents, other, Feed, dose end: 6 week, group: systemic, systemic / in life observation / body weight / body weight
# [19] = group: developmental, developmental / developmental malformation / general / crown-rump length + developmental / offspring survival late / viability index / …
# [20] = group: maternal, systemic / in life observation / clinical signs / blood around eyes and nose + systemic / in life observation / clinical signs / emaciation…
# [21] = group: developmental, systemic / in life observation / body weight / fetal weight
# [22] = group: maternal, systemic / in life observation / body weight / body weight gain + systemic / in life observation / clinical signs / alopecia + systemic / in…
# [23] = systemic / in life observation / body weight / body weight gain
# [24] = group: offspring, systemic / in life observation / body weight / offspring (pup) weight
# [25] = group: offspring, systemic / in life observation / body weight / offspring (pup) weight + systemic / organ weight / kidney / absolute
# [26] = group: parental, systemic / in life observation / body weight / body weight + systemic / pathology microscopic / kidney / casts + systemic / pathology …
# [27] = systemic / clinical chemistry / alkaline phosphatase (alp/alk) / alkaline phosphatase (alp/alk) + systemic / clinical chemistry / gamma …
# [28] = systemic / organ weight / spleen / absolute + systemic / organ weight / spleen / relative to body weight
# [29] = systemic / in life observation / body weight / body weight + systemic / in life observation / mortality / mortality + systemic / organ …
# [30] = systemic / organ weight / heart / absolute + systemic / organ weight / heart / relative to body weight
# [31] = systemic / in life observation / body weight / body weight
# [32] = systemic / in life observation / body weight / body weight + systemic / pathology microscopic / liver / neoplastic nodule + systemic / in …
# [33] = systemic / in life observation / clinical signs / abdominogenital staining + systemic / in life observation / clinical signs / hunched …
# [34] = group: offspring, systemic / pathology microscopic / blood / leukemia + systemic / pathology microscopic / blood vessel / [other] + systemic / pathology …
# [35] = group: parental, systemic / pathology microscopic / blood vessel / [other] + systemic / pathology microscopic / lung / carcinoma + systemic / hematology / …
# [36] = group: offspring, systemic / in life observation / clinical signs / [other]
# [37] = group: parental, systemic / organ weight / liver / relative to body weight
# [38] = group: offspring, developmental / offspring survival late / viability index / viability index + developmental / developmental landmark / preputial separation…
# [39] = group: parental, systemic / organ weight / adrenal gland / relative to body weight + systemic / organ weight / kidney / relative to body weight + systemic / …
# [40] = systemic / in life observation / body weight / body weight gain + systemic / in life observation / mortality / mortality
compound,measurement,setting,value
O=C1CCCCCN1 [Caprolactam],LEL,[1],188 mg/kg/day
same,LOAEL,[1],188 mg/kg/day
same,NEL,[1],< 188 mg/kg/day
same,NOAEL,[1],< 188 mg/kg/day
same,LEL,[2]; [19],1000 mg/kg/day
same,LOAEL,[2]; [19],> 1000 mg/kg/day
same,NEL,[2]; [19],500 mg/kg/day
same,NOAEL,[2]; [19],≥ 1000 mg/kg/day
same,LEL,[2]; [20],100 mg/kg/day
same,LOAEL,[2]; [20],> 1000 mg/kg/day
same,NEL,[2]; [20],< 100 mg/kg/day
same,NOAEL,[2]; [20],≥ 1000 mg/kg/day
same,LEL,[3]; [21],150 mg/kg/day
same,LOAEL,[3]; [21],> 250 mg/kg/day
same,NEL,[3]; [21],50 mg/kg/day
same,NOAEL,[3]; [21],≥ 250 mg/kg/day
same,LEL,"[3]; group: maternal, systemic / in life observation / body weight / body weight gain",150 mg/kg/day
same,LOAEL,[3]; [22],> 250 mg/kg/day
same,NEL,[3]; [22],50 mg/kg/day
same,NOAEL,[3]; [22],≥ 250 mg/kg/day
same,LEL,[4],1120 mg/kg/day
same,LOAEL,[4],1120 mg/kg/day
same,NEL,[4],< 1120 mg/kg/day
same,NOAEL,[4],< 1120 mg/kg/day
same,LEL,[5]; [23],31 mg/kg/day
same,LOAEL,[5]; [23],125 mg/kg/day
same,NEL,[5]; [23],< 31 mg/kg/day
same,NOAEL,[5]; systemic / in life observation / body weight / body weight gain + systemic / in life observation / food consumption / food consumption,63 mg/kg/day
same,LEL,[6]; [24],250 mg/kg/day
same,NEL,[6]; [24],50 mg/kg/day
same,LOAEL,[6]; [25],> 500 mg/kg/day
same,NOAEL,[6]; [25],≥ 500 mg/kg/day
same,NEL,"[6]; group: parental, systemic / in life observation / body weight / body weight",250 mg/kg/day
same,LEL,[6]; [26],500 mg/kg/day
same,LOAEL,[6]; [26],> 500 mg/kg/day
same,NOAEL,[6]; [26],≥ 500 mg/kg/day
same,LEL,[7],750 mg/kg/day
same,LOAEL,[7],750 mg/kg/day
same,NEL,[7],< 750 mg/kg/day
same,NOAEL,[7],< 750 mg/kg/day
Clc1ccccc1 [Chlorobenzene],LOAEL,[8]; [27],> 750 mg/kg/day
same,NOAEL,[8]; [27],≥ 750 mg/kg/day
same,LEL,[8]; [28],60 mg/kg/day
same,NEL,[8]; [28],< 60 mg/kg/day
same,LOAEL,[9]; [29],> 750 mg/kg/day
same,NOAEL,[9]; [29],≥ 750 mg/kg/day
same,LEL,[9]; [30],60 mg/kg/day
same,NEL,[9]; [30],< 60 mg/kg/day
same,LEL,[10]; [31],60 mg/kg/day
same,NEL,[10]; [31],< 60 mg/kg/day
same,LOAEL,[10]; [32],> 120 mg/kg/day
same,NOAEL,[10]; [32],≥ 120 mg/kg/day
"Clc1ccc(C(c2ccc(Cl)cc2)C(Cl)(Cl)Cl)cc1 [p,p'-DDT]",LEL,[11],1 mg/kg/day
same,LOAEL,[11],> 10 mg/kg/day
same,NEL,[11],< 1 mg/kg/day
same,NOAEL,[11],≥ 10 mg/kg/day
same,LOAEL,[12]; [31],21 mg/kg/day
same,NOAEL,[12]; systemic / in life observation / body weight / body weight + systemic / in life observation / clinical signs / abdominogenital staining + …,10.5 mg/kg/day
same,LEL,[12]; [33],10.5 mg/kg/day
same,NEL,[12]; [33],< 10.5 mg/kg/day
same,LEL,[13]; [34],0.55 mg/kg/day
same,LOAEL,[13]; [34],> 0.55 mg/kg/day
same,NEL,[13]; [34],< 0.55 mg/kg/day
same,NOAEL,[13]; [34],≥ 0.55 mg/kg/day
same,LEL,[13]; [35],0.55 mg/kg/day
same,LOAEL,[13]; [35],> 0.55 mg/kg/day
same,NEL,[13]; [35],< 0.55 mg/kg/day
same,NOAEL,[13]; [35],≥ 0.55 mg/kg/day
same,LEL,[14]; [36],10 mg/kg/day
same,LOAEL,[14]; [36],> 10 mg/kg/day
same,NEL,[14]; [36],1 mg/kg/day
same,NOAEL,[14]; [36],≥ 10 mg/kg/day
same,LEL,[14]; [37],10 mg/kg/day
same,LOAEL,[14]; [37],> 10 mg/kg/day
same,NEL,[14]; [37],1 mg/kg/day
same,NOAEL,[14]; [37],≥ 10 mg/kg/day
same,LEL,[15]; [38],25 mg/kg/day
same,LOAEL,[15]; [38],> 25 mg/kg/day
same,NEL,[15]; [38],3.44 mg/kg/day
same,NOAEL,[15]; [38],≥ 25 mg/kg/day
same,LOAEL,[15]; [39],> 25 mg/kg/day
same,NEL,[15]; [39],0.343 mg/kg/day
same,NOAEL,[15]; [39],≥ 25 mg/kg/day
same,LEL,"[15]; group: parental, systemic / organ weight / liver / absolute + systemic / organ weight / liver / relative to body weight + systemic / pathology microscopic / …",3.44 mg/kg/day
same,LEL,[16]; [23],2.7 mg/kg/day
same,NEL,[16]; [23],< 2.7 mg/kg/day
same,LOAEL,[16]; [40],> 26.7 mg/kg/day
same,NOAEL,[16]; [40],≥ 26.7 mg/kg/day
same,LEL,[17],26.2 mg/kg/day
same,LOAEL,[17],> 26.2 mg/kg/day
same,NEL,[17],13.1 mg/kg/day
same,NOAEL,[17],≥ 26.2 mg/kg/day
same,LEL,[18],28.1 mg/kg/day
same,LOAEL,[18],28.1 mg/kg/day
same,NEL,[18],15.8 mg/kg/day
same,NOAEL,[18],15.8 mg/kg/day
